This is an account of results in PubChem BioAssay AID220 (DTP/NCI, 2004).

For this test, the system named is CD8F1 mice, subcutaneous mammary adenocarcinoma, T/C%. Nature of the test: NCI In Vivo Anticancer Drug Screen. Data for tumor model Mammary Adenocarcinoma CD8F1 (subcutaneous) in CD8F1. The note with it: higher = larger tumour. Put shortly: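 Antitumor activity is assessed in transplantable-tumor mice by comparing the treated group with a vehicle-treated control group. Survival or tumor size serves as the measure, reported as T divided by C.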

[1] abbreviates: endpoint: median tumor weight change, dose: 31.25 mg/kg/injection, schedule: Q01DX001 (ip), vehicle: saline with Tween-80.

Several values for one entry are separate records, joined by “and”; a condition that tells them apart may be missing. Identical values can stand only once. Records with an inconclusive call do not appear.

Turning to `Cc1ccc2c(c1)C(=O)N(CC[P+](c1ccccc1)(c1ccccc1)c1ccccc1)C2=O`, the T/C reads like this: (endpoint: mean tumor weight, dose: 1.56 mg/kg/injection, schedule: Q07DX006 (ip), vehicle: water) 90 % of control; (endpoint: mean tumor weight, dose: 6.25 mg/kg/injection, schedule: Q07DX006 (ip), vehicle: water) 96 % of control; (endpoint: median tumor weight (est.), dose: 3.12 mg/kg/injection, schedule: Q07DX005 (ip), vehicle: water) 56 % of control; (endpoint: median tumor weight (est.), dose: 6.25 mg/kg/injection, schedule: Q07DX005 (ip), vehicle: water) 111 % of control.

`CN(C)c1ccc2c(NCCCCCCNc3ccnc4cc(N(C)C)ccc34)ccnc2c1`: the T/C is, setting by setting: (endpoint: median tumor weight change, dose: 15.62 mg/kg/injection, schedule: Q01DX001 (ip), vehicle: distilled water + Tween-80 + alcohol) 66 % of control; (endpoint: median tumor weight change, dose: 31.0 mg/kg/injection, schedule: Q01DX001 (ip), vehicle: distilled water + Tween-80 + alcohol) 94 % of control; (endpoint: median tumor weight change, dose: 31.25 mg/kg/injection, schedule: Q01DX001 (ip), vehicle: distilled water + Tween-80 + alcohol) 96 % of control; (endpoint: median tumor weight change, dose: 62.5 mg/kg/injection, schedule: Q01DX001 (ip), vehicle: distilled water + Tween-80 + alcohol) 3 % of control; (endpoint: median tumor weight change, dose: 62.5 mg/kg/injection, schedule: Q01DX001 (ip), vehicle: distilled water + Tween-80) 48 % of control; (endpoint: median tumor weight change, dose: 125.0 mg/kg/injection, schedule: Q01DX001 (ip), vehicle: distilled water + Tween-80 + alcohol) 51 % of control. Besides, where the note is “endpoint: median tumor weight change, dose: 250.0 mg/kg/injection, schedule: Q01DX001 (ip), vehicle: distilled water + Tween-80 + alcohol”, the T/C was 8 % of control and 28 % of control.

As for `CCCCNC(C)C1(O)Cc2c(O)c3c(c(O)c2C(OC2CC(N)C(O)C(C)O2)C1)C(=O)c1c(OC)cccc1C3=O` (centres undefined), the T/C is 100 % of control (endpoint: median tumor weight (est.), dose: 28.5 mg/kg/injection, schedule: Q07DX005 (ip), vehicle: water); 154 % of control (endpoint: median tumor weight (est.), dose: 42.7 mg/kg/injection, schedule: Q07DX005 (ip), vehicle: water); 66 % of control (endpoint: median tumor weight (est.), dose: 64.0 mg/kg/injection, schedule: Q07DX005 (ip), vehicle: water); 20 % of control (endpoint: median tumor weight (est.), dose: 96.0 mg/kg/injection, schedule: Q07DX005 (ip), vehicle: water); 98 % of control (endpoint: median tumor weight change, dose: 62.5 mg/kg/injection, schedule: Q01DX001 (ip), vehicle: suspension in saline); 65 % of control (endpoint: median tumor weight change, dose: 125.0 mg/kg/injection, schedule: Q01DX001 (ip), vehicle: suspension in saline). The T/C is, setting by setting: (endpoint: median tumor weight change, dose: 250.0 mg/kg/injection, schedule: Q01DX001 (ip), vehicle: suspension in saline) 74 % of control; (endpoint: median tumor weight change, dose: 500.0 mg/kg/injection, schedule: Q01DX001 (ip), vehicle: suspension in saline) 15 % of control; (endpoint: median tumor weight change, dose: 1000.0 mg/kg/injection, schedule: Q01DX001 (ip), vehicle: suspension in saline) 3 % of control.

`O=CC(O)C(O)C(O)C(O)C(=O)O.[NH-]C1CCCCC1[NH-].[Pt+2]` (centres undefined): the T/C (endpoint: median tumor weight (est.), dose: 6.25 mg/kg/injection, schedule: Q07DX005 (ip), vehicle: suspension in saline) was 48 % of control; the T/C (endpoint: median tumor weight (est.), dose: 12.5 mg/kg/injection, schedule: Q07DX005 (ip), vehicle: suspension in saline) is 7 % of control and 32 % of control; the T/C (endpoint: median tumor weight (est.), dose: 25.0 mg/kg/injection, schedule: Q07DX005 (ip), vehicle: suspension in saline) is 6 % of control.

With `CO[C@@H]1[C@H](O)CC[C@]2(CO2)[C@H]1[C@@]1(C)O[C@@H]1CC=C(C)C`, the T/C was 113 % of control under setting [1]; 100 % of control (endpoint: median tumor weight change, dose: 62.5 mg/kg/injection, schedule: Q01DX001 (ip), vehicle: saline with Tween-80); 106 % of control (endpoint: median tumor weight change, dose: 125.0 mg/kg/injection, schedule: Q01DX001 (ip), vehicle: saline with Tween-80); 110 % of control (endpoint: median tumor weight change, dose: 250.0 mg/kg/injection, schedule: Q01DX001 (ip), vehicle: saline with Tween-80).

As to `Cc1cc(O)c2c(c1O)C(=O)C13C(=C2O)C(=O)C2C(O)C1C1C(O)C3C(=O)C3=C(O)c4c(O)cc(C)c(O)c4C(=O)C321` (centres undefined), the T/C (endpoint: median tumor weight change, dose: 15.62 mg/kg/injection, schedule: Q01DX001 (ip), vehicle: saline with Tween-80) was 38 % of control and the T/C under setting [1] is 100 % of control.

On to `CN(C)CCN1C(=O)c2cccc3cc([N+](=O)[O-])cc(c23)C1=O`, for which the T/C (endpoint: median tumor weight change, dose: 7.5 mg/kg/injection, schedule: Q01DX001 (ip), vehicle: saline with Tween-80) was 57 % of control; the T/C (endpoint: median tumor weight change, dose: 15.0 mg/kg/injection, schedule: Q01DX001 (ip), vehicle: saline with Tween-80) was 91 % of control; the T/C (endpoint: median tumor weight change, dose: 30.0 mg/kg/injection, schedule: Q01DX001 (ip), vehicle: saline with Tween-80) is 55 % of control.

In the case of `O=C1C=C2C(=CCOC2O)O1` (centres undefined), the T/C by setting is: (endpoint: median tumor weight (est.), dose: 0.5 mg/kg/injection, schedule: Q07DX005 (ip), vehicle: Klucel (hydroxypropylcellulose) (HPC)) 36 % of control; (endpoint: median tumor weight (est.), dose: 1.0 mg/kg/injection, schedule: Q07DX005 (ip), vehicle: Klucel (hydroxypropylcellulose) (HPC)) 25 % of control; (endpoint: median tumor weight (est.), dose: 1.5 mg/kg/injection, schedule: Q07DX005 (ip), vehicle: saline) 153 % of control; (endpoint: median tumor weight (est.), dose: 2.0 mg/kg/injection, schedule: Q07DX005 (ip), vehicle: Klucel (hydroxypropylcellulose) (HPC)) 25 % of control; (endpoint: median tumor weight (est.), dose: 3.0 mg/kg/injection, schedule: Q07DX005 (ip), vehicle: saline) 87 % of control; (endpoint: median tumor weight (est.), dose: 4.0 mg/kg/injection, schedule: Q07DX005 (ip), vehicle: Klucel (hydroxypropylcellulose) (HPC)) 50 % of control. In addition, where the note is “endpoint: median tumor weight change, dose: 5.0 mg/kg/injection, schedule: Q01DX001 (ip), vehicle: Klucel (hydroxypropylcellulose) (HPC)”, the T/C is 98 % of control.

Turning to `Cc1[nH]c(=O)[nH]c(=O)c1N(CCF)CCCl`, the T/C was 113 % of control (endpoint: median tumor weight (est.), dose: 2.5 mg/kg/injection, schedule: Q07DX005 (ip), vehicle: Klucel (hydroxypropylcellulose) (HPC)); 97 % of control (endpoint: median tumor weight (est.), dose: 5.0 mg/kg/injection, schedule: Q07DX005 (ip), vehicle: Klucel (hydroxypropylcellulose) (HPC)); 79 % of control (endpoint: median tumor weight (est.), dose: 10.0 mg/kg/injection, schedule: Q07DX005 (ip), vehicle: Klucel (hydroxypropylcellulose) (HPC)); 63 % of control (endpoint: median tumor weight (est.), dose: 20.0 mg/kg/injection, schedule: Q07DX005 (ip), vehicle: Klucel (hydroxypropylcellulose) (HPC)); 68 % of control (endpoint: median tumor weight change, dose: 100.0 mg/kg/injection, schedule: Q01DX001 (ip), vehicle: Klucel (hydroxypropylcellulose) (HPC)).

`O=c1[nH]c(=O)n(C2CC(O)C(CO)O2)cc1I` (centres undefined): the T/C reads like this: (endpoint: median tumor weight (est.), dose: 182.87 mg/kg/injection, schedule: Q07DX005 (ip), vehicle: saline with Tween-80) 99 % of control; (endpoint: median tumor weight (est.), dose: 365.75 mg/kg/injection, schedule: Q07DX005 (ip), vehicle: saline with Tween-80) 76 % of control; (endpoint: median tumor weight (est.), dose: 731.5 mg/kg/injection, schedule: Q07DX005 (ip), vehicle: saline with Tween-80) 91 % of control; (endpoint: median tumor weight (est.), dose: 800.0 mg/kg/injection, schedule: Q07DX005 (ip), vehicle: saline with Tween-80) 45 % of control and 50 % of control; (endpoint: median tumor weight (est.), dose: 1463.0 mg/kg/injection, schedule: Q07DX005 (ip), vehicle: saline with Tween-80) 50 % of control; (endpoint: median tumor weight (est.), dose: 1600.0 mg/kg/injection, schedule: Q07DX005 (ip), vehicle: saline with Tween-80) 46 % of control and 53 % of control. Also, the T/C (endpoint: median tumor weight (est.), dose: 3200.0 mg/kg/injection, schedule: Q07DX005 (ip), vehicle: saline with Tween-80) was 7 % of control and 10 % of control.

Regarding `CCN(CC)CCOCCO`, the T/C (endpoint: median tumor weight change, dose: 62.5 mg/kg/injection, schedule: Q01DX001 (ip), vehicle: saline) was 151 % of control; the T/C (endpoint: median tumor weight change, dose: 125.0 mg/kg/injection, schedule: Q01DX001 (ip), vehicle: saline) was 172 % of control; the T/C (endpoint: median tumor weight change, dose: 250.0 mg/kg/injection, schedule: Q01DX001 (ip), vehicle: saline) was 65 % of control.
